Results reported in US20200216818A1 (priority 2013, published 2020).

Experiments:
Assay in all cases: MTS viability assay, ZD2767P prodrug, untransduced vs VV-CPG2-transduced cells
FaDu cells = format: cell-based, human; conditions: FaDu cells transduced with VV-CPG2 at MOI 0.1 vs untransduced
SW620 cells = format: cell-based; conditions: SW620 cells transduced with VV-CPG2 at MOI 0.1 vs untransduced
WM226.4 cells = format: cell-based; conditions: WM226.4 cells transduced with VV-CPG2 at MOI 0.1 vs untransduced

## O=C(O)CC[C@H](NC(=O)Oc1ccc(N(CCI)CCI)cc1)C(=O)O [ZD2767P, N-(4-[bis(2-iodoethyl)amino]phenoxycarbonyl)-L-glutamic acid]
FaDu cells
  reduction of the EC50 of ZD2767P: 103 fold
SW620 cells
  reduction of the EC50 of ZD2767P: 119 fold
WM226.4 cells
  reduction of the EC50 of ZD2767P: 114 fold
